Laboratory results reported in patent US11339130B1 (Blade Therapeutics, Inc., priority 2016, dated 2022).

Key:
[1] = test system: Calpain activity in SH-SY5Y cells; experiment: SH-SY5Y + AMC fluorescence assay (Suc-LLVY-AMC substrate); type: cell-based; conditions: read-out: SH-SY5Y + AMC IC50
[2] = biological target: T1, Human Calpain 1/NS1 (Homo sapiens, UniProt P07384); experiment: Calpain inhibition continuous fluorescence (FRET) assay, Human Calpain 1/NS1; type: biochemical; conditions: read-out: Human Calpain 1/NS1 IC50
T1 sequence (P07384 1-714): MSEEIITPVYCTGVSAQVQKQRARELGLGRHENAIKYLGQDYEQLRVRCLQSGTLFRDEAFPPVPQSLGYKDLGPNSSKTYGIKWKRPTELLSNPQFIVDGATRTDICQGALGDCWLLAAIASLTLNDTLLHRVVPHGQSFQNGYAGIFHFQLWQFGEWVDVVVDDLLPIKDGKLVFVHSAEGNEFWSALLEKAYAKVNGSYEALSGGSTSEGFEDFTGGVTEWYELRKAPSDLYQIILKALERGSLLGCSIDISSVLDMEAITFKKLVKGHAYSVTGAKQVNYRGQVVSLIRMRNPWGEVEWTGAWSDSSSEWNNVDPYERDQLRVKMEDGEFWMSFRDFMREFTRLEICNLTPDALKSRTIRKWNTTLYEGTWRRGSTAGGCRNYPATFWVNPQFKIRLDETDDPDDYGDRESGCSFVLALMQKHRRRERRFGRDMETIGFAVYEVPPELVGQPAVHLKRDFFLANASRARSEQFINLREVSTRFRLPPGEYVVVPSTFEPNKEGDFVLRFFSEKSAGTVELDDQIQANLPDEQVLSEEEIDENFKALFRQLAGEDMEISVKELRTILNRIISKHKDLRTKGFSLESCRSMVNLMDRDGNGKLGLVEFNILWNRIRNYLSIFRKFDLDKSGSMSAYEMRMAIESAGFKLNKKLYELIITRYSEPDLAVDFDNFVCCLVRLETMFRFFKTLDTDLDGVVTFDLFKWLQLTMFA
T1 sequence (P04632 1-268 partner): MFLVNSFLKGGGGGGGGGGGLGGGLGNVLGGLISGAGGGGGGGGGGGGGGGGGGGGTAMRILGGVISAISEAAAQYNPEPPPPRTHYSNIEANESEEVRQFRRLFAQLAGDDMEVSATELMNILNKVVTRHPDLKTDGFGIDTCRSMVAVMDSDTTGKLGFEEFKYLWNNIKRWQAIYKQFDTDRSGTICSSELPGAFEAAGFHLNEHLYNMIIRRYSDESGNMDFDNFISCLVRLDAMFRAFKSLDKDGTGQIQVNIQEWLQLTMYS
In short: (§1)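 Inhibitors were preincubated with calpain in 50 mM Tris pH 7.5, 100 mM NaCl, 1 mM DTT at 25C. Reactions were started with 5-FAM/QXL 520 FRET peptide substrate plus CaCl2 and read at 490/520 nm for 10 min. IC50s came from 4-parameter fits of slope rates (1-5 min).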

[3] = biological target: T2, Human Calpain 2/NS1 (Homo sapiens, UniProt P17655); experiment: Calpain inhibition continuous fluorescence (FRET) assay, Human Calpain 2/NS1; type: biochemical; conditions: read-out: Human Calpain 2/NS1 IC50
T2 sequence (P17655 1-700): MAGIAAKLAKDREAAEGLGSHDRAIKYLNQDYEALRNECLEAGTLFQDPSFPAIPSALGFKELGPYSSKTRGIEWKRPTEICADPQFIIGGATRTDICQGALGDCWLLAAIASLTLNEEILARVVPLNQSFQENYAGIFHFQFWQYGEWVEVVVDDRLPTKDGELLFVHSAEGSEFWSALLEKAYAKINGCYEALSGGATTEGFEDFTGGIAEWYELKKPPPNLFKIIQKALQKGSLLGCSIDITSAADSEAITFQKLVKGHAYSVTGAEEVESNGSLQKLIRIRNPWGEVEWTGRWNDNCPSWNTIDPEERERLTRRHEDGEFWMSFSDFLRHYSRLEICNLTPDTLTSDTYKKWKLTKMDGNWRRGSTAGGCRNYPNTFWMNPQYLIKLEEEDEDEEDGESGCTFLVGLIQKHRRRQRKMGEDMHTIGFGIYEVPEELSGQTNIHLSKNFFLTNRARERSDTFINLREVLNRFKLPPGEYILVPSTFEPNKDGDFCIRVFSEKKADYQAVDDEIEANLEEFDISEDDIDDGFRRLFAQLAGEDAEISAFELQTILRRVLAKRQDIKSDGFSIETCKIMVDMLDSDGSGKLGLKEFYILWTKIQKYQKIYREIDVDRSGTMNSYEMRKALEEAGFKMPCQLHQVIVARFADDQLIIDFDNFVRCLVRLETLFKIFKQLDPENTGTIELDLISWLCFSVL
T2 sequence (P04632 1-268 partner): T1 sequence (P04632 1-268 partner)
In short: as §1

[4] = test system: Calpain activity in SH-SY5Y cells (SBDP-150); experiment: SH-SY5Y Spectrin western blot assay (SBDP-150 breakdown product, A23187-induced); type: cell-based; conditions: Homo sapiens; SH-SY5Y cells, A23187-induced SBDP-150, western blot; read-out: SH-SY5Y Spectrin IC50
[5] = biological target: T3, Human Calpain 9/NS1 (Homo sapiens, UniProt O14815); experiment: Calpain inhibition continuous fluorescence (FRET) assay, Human Calpain 9/NS1; type: biochemical; conditions: read-out: Human Calpain 9/NS1 IC50
T3 sequence (O14815 1-690): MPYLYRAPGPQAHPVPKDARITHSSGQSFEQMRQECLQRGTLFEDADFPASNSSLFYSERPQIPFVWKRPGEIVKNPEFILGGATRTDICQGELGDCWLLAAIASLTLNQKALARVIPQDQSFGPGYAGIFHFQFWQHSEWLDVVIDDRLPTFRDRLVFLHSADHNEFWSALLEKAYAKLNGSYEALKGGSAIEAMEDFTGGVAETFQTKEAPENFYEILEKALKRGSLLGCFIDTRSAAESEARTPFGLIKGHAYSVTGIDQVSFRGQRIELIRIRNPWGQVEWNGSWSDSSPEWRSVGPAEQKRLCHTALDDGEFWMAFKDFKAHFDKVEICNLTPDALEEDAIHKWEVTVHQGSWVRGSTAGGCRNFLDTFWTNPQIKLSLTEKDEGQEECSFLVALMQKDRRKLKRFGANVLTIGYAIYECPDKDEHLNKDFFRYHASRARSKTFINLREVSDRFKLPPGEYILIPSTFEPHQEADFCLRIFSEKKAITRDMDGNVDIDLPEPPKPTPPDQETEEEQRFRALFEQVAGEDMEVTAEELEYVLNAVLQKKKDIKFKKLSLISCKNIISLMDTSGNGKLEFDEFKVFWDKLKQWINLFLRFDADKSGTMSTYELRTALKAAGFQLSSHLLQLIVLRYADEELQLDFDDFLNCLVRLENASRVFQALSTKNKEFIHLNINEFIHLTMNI
T3 sequence (P04632 1-268 partner): T1 sequence (P04632 1-268 partner)
In short: as §1

Compound | IC50 [1] | IC50 [2] | IC50 [3] | IC50 [4] | IC50 [5]
NC(=O)C(=O)C(Cc1ccccc1)NC(=O)c1cn(C(F)F)nc1-c1ccccn1 (centres unmarked) [Compound 550, N-(4-amino-3,4-dioxo-1-phenylbutan-2-yl)-1-(difluoromethyl)-3-(pyridin-2-yl)-1H-pyrazole-4-carboxamide] | 10 to 25 µM | < 3 µM | < 3 µM | > 25 µM | < 3 µM
NC(=O)C(=O)C(Cc1ccccc1)NC(=O)c1cn(C(F)F)nc1-c1ccc2ccccc2c1 (centres unmarked) [Compound 551, N-(4-amino-3,4-dioxo-1-phenylbutan-2-yl)-1-(difluoromethyl)-3-(naphthalen-2-yl)-1H-pyrazole-4-carboxamide] | > 25 µM | < 3 µM | < 3 µM | 10 to 25 µM | < 3 µM
NC(=O)C(=O)C(Cc1ccccc1)NC(=O)c1cn(C(F)F)nc1-c1cc(F)ccc1F (centres unmarked) [Compound 552, N-(4-amino-3,4-dioxo-1-phenylbutan-2-yl)-1-(difluoromethyl)-3-(2,5-difluorophenyl)-1H-pyrazole-4-carboxamide] | < 10 µM | < 3 µM | < 3 µM | < 10 µM | < 3 µM
Cc1cc(F)cc(-c2nn(C(F)F)cc2C(=O)NC(Cc2ccccc2)C(=O)C(N)=O)c1 (centres unmarked) [Compound 554, N-(4-amino-3,4-dioxo-1-phenylbutan-2-yl)-1-(difluoromethyl)-3-(3-fluoro-5-methylphenyl)-1H-pyrazole-4-carboxamide] | < 10 µM | < 3 µM | < 3 µM | < 10 µM | < 3 µM
NC(=O)C(=O)C(Cc1ccccc1)NC(=O)c1cn(C(F)F)nc1-c1cccc2c1OCCO2 (centres unmarked) [Compound 555] | < 10 µM | < 3 µM | < 3 µM | > 25 µM | < 3 µM
NC(=O)C(=O)C(Cc1ccccc1)NC(=O)c1cnoc1-c1ccccc1F (centres unmarked) [Compound 556, N-(4-amino-3,4-dioxo-1-phenylbutan-2-yl)-5-(2-fluorophenyl)isoxazole-4-carboxamide] | < 10 µM | < 3 µM | < 3 µM | < 10 µM | < 3 µM
NC(=O)C(=O)C(Cc1ccccc1)NC(=O)c1cnoc1-c1cccc(F)c1 (centres unmarked) [Compound 559, N-(4-amino-3,4-dioxo-1-phenylbutan-2-yl)-5-(3-fluorophenyl)isoxazole-4-carboxamide] | > 25 µM | < 3 µM | < 3 µM | 10 to 25 µM | < 3 µM
NC(=O)C(=O)C(Cc1ccccc1)NC(=O)c1cn(C(F)F)nc1-c1cncc2ccccc12 (centres unmarked) [Compound 561, N-(4-amino-3,4-dioxo-1-phenylbutan-2-yl)-1-(difluoromethyl)-3-(isoquinolin-4-yl)-1H-pyrazole-4-carboxamide] | 10 to 25 µM | < 3 µM | < 3 µM | 10 to 25 µM | < 3 µM
CC#Cc1nn(-c2ccccc2)cc1C(=O)NC(Cc1ccccc1)C(=O)C(N)=O (centres unmarked) [Compound 562, N-(4-amino-3,4-dioxo-1-phenylbutan-2-yl)-1-phenyl-3-(prop-1-yn-1-yl)-1H-pyrazole-4-carb oxamide] | < 10 µM | > 10 µM | > 10 µM | > 25 µM | > 10 µM
Cc1ccc(F)c(-c2nn(C(F)F)cc2C(=O)NC(Cc2ccccc2)C(=O)C(N)=O)c1 (centres unmarked) [Compound 564, N-(4-amino-3,4-dioxo-1-phenylbutan-2-yl)-1-(difluoromethyl)-3-(2-fluoro-5-methylphenyl)-1H-pyrazole-4-carboxamide] | < 10 µM | < 3 µM | < 3 µM | < 10 µM | < 3 µM
Cc1cc(C)cc(-c2nn(C(F)F)cc2C(=O)NC(Cc2ccccc2)C(=O)C(N)=O)c1 (centres unmarked) [Compound 565, N-(4-amino-3,4-dioxo-1-phenylbutan-2-yl)-1-(difluoromethyl)-3-(3,5-dimethylphenyl)-1H-pyrazole-4-carboxamide] | > 25 µM | < 3 µM | < 3 µM | < 10 µM | < 3 µM

Further lines, results first:

IC50 [1] | IC50 [2] | IC50 [3] | IC50 [4] | IC50 [5] | Compound
< 10 µM | < 3 µM | < 3 µM | > 25 µM | < 3 µM | Cn1cc(C(=O)N[C@H](C(=O)C(N)=O)C2Cc3ccccc3C2)c(-c2ccccc2F)n1 [Compound 553, (S)—N-(3-amino-1-(2,3-dihydro-1H-inden-2-yl)-2,3-dioxopropyl)-3-(2-fluorophenyl)-1-methyl-1H-pyrazole-4-c arboxamide]
< 10 µM | < 3 µM | < 3 µM | > 25 µM | < 3 µM | Cc1ccccc1-c1oncc1C(=O)NC(Cc1ccccc1)C(=O)C(N)=O (centres unmarked) [Compound 557, N-(4-amino-3,4-dioxo-1-phenylbutan-2-yl)-5-(o-tolyl)isoxazole-4-carboxamide]
< 10 µM | < 3 µM | < 3 µM | 10 to 25 µM | < 3 µM | Cc1ccc(F)cc1-c1oncc1C(=O)NC(Cc1ccccc1)C(=O)C(N)=O (centres unmarked) [Compound 558, N-(4-amino-3,4-dioxo-1-phenylbutan-2-yl)-5-(5-fluoro-2-methylphenyl)isoxazole-4-carboxamide]
> 25 µM | < 3 µM | < 3 µM | 10 to 25 µM | < 3 µM | Cc1cccc(-c2oncc2C(=O)NC(Cc2ccccc2)C(=O)C(N)=O)c1 (centres unmarked) [Compound 560, N-(4-amino-3,4-dioxo-1-phenylbutan-2-yl)-5-(m-tolyl)isoxazole-4-carboxamide]
< 10 µM | < 3 µM | < 3 µM | < 10 µM | < 3 µM | NC(=O)C(=O)C(Cc1ccccc1)NC(=O)c1cn(C(F)F)nc1-c1cccc2c1OCO2 (centres unmarked) [Compound 563, N-(4-amino-3,4-dioxo-1-phenylbutan-2-yl)-3-(benzo[d][1,3]dioxol-4-yl)-1-(difluoromethyl)-1H-pyrazole-4-carboxamide]
